53 compounds from patent US20220306630A1, “AGONISTS OF ROR GAMMAt” (BRISTOL-MYERS SQUIBB COMPANY, priority 2019, published 2022) can be followed below.

Each structure is given as a SMILES string.

The test has as its target T1, RORgT (Homo sapiens, UniProt P51449).
T1 construct: Gal4 (fusion partner); expressed in transfected cells; host or cells: engineered Jurkat cells (Jurkat pEx/Gal/hRORγ CLBD/HYG pG5luc/blast)
T1 sequence (P51449 267-516): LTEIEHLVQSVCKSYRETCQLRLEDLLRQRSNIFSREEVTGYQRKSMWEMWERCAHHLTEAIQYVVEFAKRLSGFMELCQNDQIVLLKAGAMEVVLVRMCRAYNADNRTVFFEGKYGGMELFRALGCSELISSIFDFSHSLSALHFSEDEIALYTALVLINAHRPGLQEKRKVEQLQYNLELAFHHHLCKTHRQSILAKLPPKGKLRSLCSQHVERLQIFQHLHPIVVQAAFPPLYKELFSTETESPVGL
Kind of test: RORgT Gal4 Luciferase Reporter Gene Assay. The conditions noted are these: engineered Jurkat cells overexpressing RORgT (LBD or full length) with Gal4 Luc reporter; 18 hours at 37° C.; 40 μM to 0.67 nM; read-out: RORg_GAL4 EC50. The class given is cell-based. As to the method:
The compound and the cells were incubated for 18 hours at 37° C. in a cell culture incubator. Cells were then lysed with 15 uL of Steady-Glo Luciferase Assay reagent (Promega EZ550), followed by centrifuging the assay plates at 1500 RPM for 1 minute. Subsequently, the plates were read on the Envision (PerkinElmer). The inhibition of constitutive activity of RORgT achieved by graded concentrations of compound was calculated as a percentage of the luminescence signal window reduction over a control compound.

As usually defined, the EC50 is the concentration needed to bring the measured effect to its halfway point. `CC(c1cc(F)cc(Oc2c(Cl)ccc(C(=O)NCc3ccc(S(N)(=O)=O)cc3)c2Cl)c1)C(F)(F)F` (centres unmarked) [Example 355]: the EC50 stood at 0.016 µM.

Regarding `CC(C)(F)c1cc(F)cc(Oc2c(Cl)cc(NC(=O)Cc3ccc(S(C)(=O)=O)cc3)cc2Cl)c1` [Example 325], the EC50 came to 0.0072 µM.

For `COc1ccc(Oc2c(Cl)ccc(C(=O)NCC3CCN(S(=O)(=O)C4CC4)CC3)c2Cl)cc1C(C)C` [Example 92], the EC50 turned out to be 0.024 µM.

Turning to `COc1ccc(Oc2c(Cl)cc(NC(=O)Cc3cccc(C#N)c3)cc2Cl)cc1C(C)C` [Example 4, 2-(3-cyanophenyl)-N-(3,5-dichloro-4-(3-isopropyl-4-methoxyphenoxy)phenyl) acetamide], the EC50 was 0.121 µM.

In the case of `COc1ccc(Oc2c(Cl)ccc(C(=O)NC(C)c3cn(C)nc3C)c2Cl)cc1C(C)C` (centres unmarked) [Example 204], the EC50 was 0.04 µM.

Consider `COc1ccc(Oc2c(Cl)cc(NC(=O)Cc3cccnc3)cc2Cl)cc1C(C)(C)O` [Example 335], for which the EC50 was found to be 0.722 µM.

Turning to `COc1ccc(Oc2c(Cl)cc(N3CC(CNC(C)=O)OC3=O)cc2Cl)cc1C(C)C` (centres unmarked) [Example 11, N-((3-(3,5-dichloro-4-(3-isopropyl-4-methoxyphenoxy)phenyl)-2-oxooxazolidin-5-yl)methyl)acetamide], the concentration for a half-maximal effect (EC50) was determined as 0.077 µM.

`COc1ccc(Oc2c(Cl)ccc(CNC(=O)C3CCN(S(C)(=O)=O)CC3)c2Cl)cc1C(C)C` [Example 213]: the EC50 was 0.019 µM.

With `COc1ncc(Oc2c(Cl)cc(NC(=O)CC3CCN(S(C)(=O)=O)CC3)cc2Cl)cc1C(C)(C)F` [Example 28, N-(3,5-dichloro-4-((5-(2-fluoropropan-2-yl)-6-methoxypyridin-3-yl)oxy)phenyl)-2-(1-(methylsulfonyl)piperidin-4-yl)acetamide], the EC50 turned out to be 0.0069 µM.

Consider `CC(C)c1cc(Oc2c(Cl)cc(NC(=O)CC3CCN(S(C)(=O)=O)CC3)cc2Cl)ccc1OC(F)(F)F` [Example 260], for which the EC50 amounted to 0.102 µM.

For `COc1ccc(Oc2c(Cl)ccc(C(=O)N3CCN(c4ccc(Cl)cc4)CC3)c2Cl)cc1C(C)C` [Example 230], the EC50 stood at 0.373 µM.

As to `COc1ncc(Oc2c(Cl)cc(NC(=O)CC3CCN(S(C)(=O)=O)CC3)cc2Cl)cc1C(C)(C)O` [Example 27, N-(3,5-dichloro-4-((5-(2-hydroxypropan-2-yl)-6-methoxypyridin-3-yl)oxy)phenyl)-2-(1-(methylsulfonyl)piperidin-4-yl)acetamide], the EC50 was 0.03 µM.

Take `COc1ccc(Oc2c(Cl)cc(NC(=O)CN3CCN(S(N)(=O)=O)CC3)cc2Cl)cc1C(C)C` [Example 48, N-(3,5-dichloro-4-(3-isopropyl-4-methoxyphenoxy)phenyl)-2-(4-sulfamoylpiperazin-1-yl)acetamide]: the EC50 turned out to be 0.105 µM.

As to `COc1ccc(Oc2c(Cl)ccc(C(=O)NCC3CCN(S(C)(=O)=O)CC3)c2Cl)cc1C(C)C` [Example 86], the EC50 was determined as 0.012 µM.

Take `COc1ccc(Oc2c(Cl)cc(NC(=O)Cc3ccc(S(C)(=O)=O)cc3)cc2Cl)cc1C(C)(C)F` [Example 336]: the EC50 was 0.014 µM.

As to `COc1ccc(Oc2c(Cl)cc(NC(=O)OCC(C)(C)C#N)cc2Cl)cc1C(C)C` [Example 233], the EC50 was determined as 0.319 µM.

Consider `COc1ccc(Oc2c(Cl)cc(NC(=O)CN3CCC[C@H](NS(C)(=O)=O)C3)cc2Cl)cc1C(C)C` [Example 168], for which the EC50 was 0.27 µM.

Consider `CC(C)c1cc(F)cc(Oc2c(Cl)ccc(C(=O)NC(C)c3ccc(S(C)(=O)=O)cc3)c2Cl)c1` (centres unmarked) [Example 140], for which the EC50 came to 0.0093 µM.

For the compound `COc1ccc(Oc2c(Cl)cc(NC(=O)Cc3ccc[n+]([O-])c3)cc2Cl)cc1C(C)C` [Example 237], the concentration for a half-maximal effect (EC50) is 0.235 µM.

With `CCS(=O)(=O)NC1CN(CC(=O)Nc2cc(Cl)c(Oc3ccc(OC)c(C(C)C)c3)c(Cl)c2)C1` [Example 162], the EC50 is 0.22 µM.

As to `CC(C)c1cc(F)cc(Oc2c(Cl)cc(NC(=O)NC3CCCN(S(C)(=O)=O)C3)cc2Cl)c1` (centres unmarked) [Example 26, 1-(3,5-dichloro-4-(3-fluoro-5-isopropylphenoxy)phenyl)-3-(1-(methylsulfonyl)piperidin-3-yl)urea], the EC50 was 0.322 µM.

Take `COc1ccc(Oc2c(Cl)ccc(C(=O)NC(C)c3ccnn3C)c2Cl)cc1C(C)C` (centres unmarked) [Example 217]: the EC50 came out at 0.045 µM.

As to `C=C(C)c1cc(Oc2c(Cl)ccc(C(=O)NCC3CCN(S(C)(=O)=O)CC3)c2Cl)cnc1OC` [Example 71], the concentration giving a half-maximal response (EC50) was determined as 0.015 µM.

Regarding `COc1ccc(Oc2c(Cl)ccc(CNC(=O)Cc3cccc(S(C)(=O)=O)c3)c2Cl)cc1C(C)C` [Example 87], the EC50 turned out to be 0.541 µM.

As for `COc1ncc(Oc2c(Cl)cc(NC(=O)CN3CCC(S(C)(=O)=O)CC3)cc2Cl)cc1C(C)C` [Example 268], the half-maximal effective concentration (EC50) turned out to be 0.04 µM.

In the case of `COc1ccc(Oc2c(Cl)ccc(N(C)C(=O)C(C)c3ccc(S(C)(=O)=O)cc3)c2Cl)cc1C(C)C` (centres unmarked) [Example 66], the EC50 was determined as 0.268 µM.

As for `COc1ccc(Oc2c(Cl)ccc(CNC(=O)C3CCN(S(=O)(=O)C(C)C)CC3)c2Cl)cc1C(C)C` [Example 95], the EC50 was found to be 0.024 µM.

In the case of `CC(C)c1cc(F)cc(Oc2c(Cl)ccc(C(=O)NCC3CCN(S(=O)(=O)C(C)C)CC3)c2Cl)c1` [Example 116], the EC50 is 0.35 µM.

Consider `CC(C)c1cc(F)cc(Oc2c(Cl)ccc(C(=O)NCc3ccc(S(N)(=O)=O)cc3)c2Cl)c1` [Example 16, 2,4-dichloro-3-(3-fluoro-5-isopropylphenoxy)-N-(4-sulfamoylbenzyl)benzamide], for which the EC50 is 0.0061 µM.

With `CC(C)c1cc(F)cc(Oc2c(Cl)ccc(C(=O)NCc3cccc(S(C)(=O)=O)c3)c2Cl)c1` [Example 139], the EC50 worked out at 0.187 µM.

As for `COc1ccc(Oc2c(Cl)ccc(C(=O)N(C)CC3CCN(S(C)(=O)=O)CC3)c2Cl)cc1C(C)C` [Example 104], the half-maximal effective concentration (EC50) is 0.015 µM.

With `COc1ccc(Oc2c(Cl)cc(NC(=O)Cc3cncnc3)cc2Cl)cc1C(C)C` [Example 342], the concentration for a half-maximal effect (EC50) is 0.136 µM.

Turning to `COc1ccc(Oc2c(Cl)cc3[nH]c(Cc4ccccc4)nc3c2Cl)cc1C(C)C` [Example 308], the half-maximal effective concentration (EC50) worked out at 1.28 µM.

Take `COc1ccc(Oc2c(Cl)cc(NC(=O)CN3CCC[C@@H](NS(C)(=O)=O)C3)cc2Cl)cc1C(C)C` [Example 171]: the half-maximal effective concentration (EC50) worked out at 2.59 µM.

On to `COc1ccc(Oc2c(Cl)cc(NC(=O)Cc3cncn3C)cc2Cl)cc1C(C)C` [Example 248], for which the concentration giving a half-maximal response (EC50) was 2.25 µM.

On to `COc1ccc(Oc2c(Cl)ccc(C(=O)NCCO)c2Cl)cc1C(C)C` [Example 208], for which the EC50 worked out at 0.508 µM.

On to `COc1ncc(Oc2c(Cl)ccc(NC(=O)CC3CCN(S(C)(=O)=O)CC3)c2Cl)cc1C(C)C` [Example 129], for which the concentration for a half-maximal effect (EC50) is 0.011 µM.

As to `COc1ccc(Oc2c(Cl)ccc(CNC(=O)CC3CCN(S(C)(=O)=O)CC3)c2Cl)cc1C(C)C` [Example 222], the 50% effective concentration (EC50) is 0.225 µM.

Turning to `CCS(=O)(=O)N1CCC(CC(=O)Nc2cc(Cl)c(Oc3ccc(OC)c(C(C)C)c3)c(Cl)c2)CC1` [Example 319], the EC50 was 0.033 µM.

For `COc1ccc(Oc2c(Cl)cc(NC(=O)CCCN3CCOCC3)cc2Cl)cc1C(C)C` [Example 298], the EC50 came out at 0.727 µM.

For the compound `COc1ccc(Oc2c(Cl)ccc(CNC(=O)c3ccc(S(C)(=O)=O)cc3Cl)c2Cl)cc1C(C)C` [Example 62], the EC50 is 0.096 µM.

For the compound `CC(c1cc(F)cc(Oc2c(Cl)cc(NC(=O)CC3CCN(S(C)(=O)=O)CC3)cc2Cl)c1)C(F)(F)F` (centres unmarked) [Example 352], the EC50 was 0.015 µM.

As for `COc1ccc(Oc2c(Cl)cc(NC(=O)CCn3cc(S(C)(=O)=O)cn3)cc2Cl)cc1C(C)C` [Example 9, N-(3,5-dichloro-4-(3-isopropyl-4-methoxyphenoxy)phenyl)-3-(4-(methylsulfonyl)-1H-pyrazol-1-yl)propanamide], the EC50 turned out to be 0.081 µM.

Take `CC(C)c1cc(F)cc(Oc2c(Cl)cc(NC(=O)OC3CCCN(S(C)(=O)=O)C3)cc2Cl)c1` (centres unmarked) [Example 25, 1-(methylsulfonyl)piperidin-3-yl (3,5-dichloro-4-(3-fluoro-5-isopropylphenoxy)phenyl)carbamate]: the 50% effective concentration (EC50) was 0.626 µM.

Consider `COc1ccc(Oc2c(Cl)ccc(C(=O)N3CCN(c4ccccc4)CC3)c2Cl)cc1C(C)C` [Example 214], for which the concentration for a half-maximal effect (EC50) worked out at 0.434 µM.

Regarding `COc1ccc(Oc2c(Cl)cc(NS(=O)(=O)C3CC3)cc2Cl)cc1C(C)C` [Example 304], the EC50 was determined as 1.08 µM.

As to `COc1ccc(Oc2c(Cl)cc3[nH]c(Cc4cccnc4)nc3c2Cl)cc1C(C)C` [Example 309], the EC50 came to 0.409 µM.

For `COc1ccc(Oc2c(Cl)cc(NC(=O)Cc3cccnc3)cc2Cl)cc1CC(C)C` [Example 311], the EC50 is 0.153 µM.

On to `C=C(c1cc(Oc2c(Cl)cc(NC(=O)CC3CCN(S(C)(=O)=O)CC3)cc2Cl)cnc1OC)C(F)(F)F` [Example 133], for which the EC50 was determined as 0.0046 µM.

Regarding `CC(C)c1cc(F)cc(Oc2c(Cl)ccc(C(=O)NCC3CCN(S(C)(=O)=O)CC3)c2Cl)c1` [Example 261], the EC50 came out at 0.014 µM.

For the compound `CC(C)c1cc(Oc2c(Cl)ccc(C(=O)NCc3ccc(S(N)(=O)=O)cc3)c2Cl)ccc1F` [Example 114], the EC50 turned out to be 0.0052 µM.

For the compound `COc1ccc(Oc2c(Cl)cc(NC(=O)Cc3cccnc3)cc2Cl)cc1C1CC1` [Example 37, N-(3,5-dichloro-4-(3-cyclopropyl-4-methoxyphenoxy)phenyl)-2-(pyridin-3-yl)acetamide], the EC50 stood at 1.12 µM.

As for `COc1ncc(Oc2c(Cl)cc(NC(=O)CC3CCN(S(C)(=O)=O)CC3)cc2Cl)cc1C1CC1` [Example 126], the EC50 was 0.0032 µM.
